Results on one molecule are retold here after ChEMBL document CHEMBL2390907, “Juglone, isolated from Juglans mandshurica Maxim, induces apoptosis via down-regulation of AR expression in human prostate cancer LNCaP cells” (Bioorg Med Chem Lett, 2013).

In assay [1] the test system is LNCaP. In words: Induction of apoptosis in human LNCAP cells assessed as decrease of DHT-induced prostate-specific antigen mRNA expression at 15 uM treated 2 hrs before DHT challenge measured after 24 hrs by RT-PCR analysis. Format: functional, cell-based.
Assay [2] deals with LNCaP. Briefly: Induction of apoptosis in human LNCAP cells assessed as decrease of DHT-induced androgen receptor mRNA expression at 15 uM treated 2 hrs before DHT challenge measured after 24 hrs by RT-PCR analysis. It is filed as functional, cell-based.
Assay [3] has as its system LNCaP. Briefly: Induction of apoptosis in human LNCAP cells assessed as decrease of prostate-specific antigen protein expression at 5 uM after 24 hrs by Western blot analysis. It is filed as functional, cell-based. (In general: Immunoblotting shows a protein as a band on a membrane.)
In assay [4] the test system is LNCaP. Briefly: Induction of apoptosis in human LNCAP cells assessed as decrease of androgen receptor protein expression at 5 uM after 24 hrs by Western blot analysis. It is filed as functional, cell-based.
Assay [5] has as its system LNCaP. In words: Induction of apoptosis in human LNCAP cells assessed as decrease of prostate-specific antigen protein expression after 24 hrs by Western blot analysis. It is filed as functional, cell-based.
The test system of assay [6] is LNCaP. In words: Induction of apoptosis in human LNCAP cells assessed as decrease of androgen receptor protein expression after 24 hrs by Western blot analysis. Format: functional, cell-based.
Assay [7] deals with LNCaP. Briefly: Induction of apoptosis in human LNCAP cells assessed as decrease of mitochondria membrane potential after 24 hrs using rhodamine 123 dye by flow cytometry. Format: functional, cell-based. On the technique in general: A flow cytometer gives signals particle by particle.
For assay [8], the system named is LNCaP. In words: Induction of apoptosis in human LNCAP cells assessed as activation of caspase-3 and 9 at 15 uM after 24 hrs by Western blot analysis relative to control. It is filed as functional.
In assay [9] the test system is LNCaP. Briefly: Induction of apoptosis in human LNCAP cells assessed as cleavage of precursor of caspase-3 and 9 after 24 hrs by Western blot analysis. It is filed as functional, cell-based.
The test system of assay [10] is LNCaP. In words: Induction of apoptosis in human LNCAP cells assessed as increase of annexin V-FITC/PI staining positive cells after 24 hrs by flow cytometry. It is filed as functional, cell-based.
Assay [11] relates to LNCaP. In words: Induction of apoptosis in human LNCAP cells assessed as membrane blebbing at 5 to 15 uM after 24 hrs using Hoechst 33342 staining by fluorescence microscopic analysis. Format: functional, cell-based.
Assay [12] deals with LNCaP. Briefly: Induction of apoptosis in human LNCAP cells assessed as cell shrinkage at 5 to 15 uM after 24 hrs using Hoechst 33342 staining by fluorescence microscopic analysis. Format: functional, cell-based.
The subject of assay [13] is LNCaP. Briefly: Induction of apoptosis in human LNCAP cells assessed as nuclear condensation at 5 to 15 uM after 24 hrs using Hoechst 33342 staining by fluorescence microscopic analysis. Format: functional, cell-based.
For assay [14], the system named is LNCaP. Briefly: Antiproliferative activity against human LNCAP cells after 24 hrs by MTT assay. Format: functional, cell-based.

Calls of active or inactive are those of the source. The calls are words filed in the database; no cut-off is given here.

In the case of `O=C1C=CC(=O)c2c(O)cccc21` [JUGLONE], the result in the assay on LNCaP [1], with LNCaP [2], in the assay with LNCaP [11], in the assay on LNCaP [12] and in the assay on LNCaP [13] was Active. The outcome in the assay with LNCaP [3] and with LNCaP [4] was inactive. Besides, the Activity result in the assay on LNCaP [5], with LNCaP [6], with LNCaP [7], in the assay on LNCaP [9], with LNCaP [10] and in the assay with LNCaP [14] was “Dose-dependent effect” throughout. Further, the “fold change (FC)” value in the assay on LNCaP [8] is given as >2.5. Also, in the assay with LNCaP [14], the IC50 – broadly, the concentration needed to halve the response being measured – turned out to be 13.8 µM.
